The record followed here is US12291518B2, “Thyroid hormone receptor agonists and use thereof” (Eccogene Inc., priority 2020, dated 2025).

Where only a bound is given, the exact number is not on record here.

For one assay, the target named is T1, THR alpha-LBD (Homo sapiens, UniProt P10827).
T1 construct: except that THR alpha-LBD of a final concentration 0.25 nM was used; purchased Invitrogen PV4687
The assay can be described thus: THR-α Coactivator Peptide Recruitment Assay (LanthaScreen TR-FRET). The class given is biochemical. To be noted: TR-FRET coactivator recruitment, THR alpha-LBD 0.25 nM; for EC50: read-out: THRα EC50. In a few lines: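 TR-FRET coactivator recruitment with THR alpha-LBD at 0.25 nM final, Fluorescein-SRC2-2 peptide 0.1 nM and Tb-labeled anti-GST antibody 2 nM; 2 h incubation at room temperature. 520/495 nm emission ratio fitted to a four-parameter sigmoidal curve to give EC50.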

The next assay addresses T2, THR beta-LBD (Homo sapiens, UniProt P10828).
T2 construct: THR beta-LBD (the final concentration is 0.5 nM) was added to the 384-well assay plate; purchased Invitrogen PV4686
T2 sequence (P10828 217-461 limits assumed): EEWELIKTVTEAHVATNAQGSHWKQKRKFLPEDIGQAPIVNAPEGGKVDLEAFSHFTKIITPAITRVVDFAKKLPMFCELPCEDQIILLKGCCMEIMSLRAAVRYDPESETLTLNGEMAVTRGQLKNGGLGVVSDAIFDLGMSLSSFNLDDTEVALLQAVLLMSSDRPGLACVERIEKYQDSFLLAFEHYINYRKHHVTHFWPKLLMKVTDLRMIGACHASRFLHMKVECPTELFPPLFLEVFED
Description: THR-β Coactivator Peptide Recruitment Assay (LanthaScreen TR-FRET). The format is biochemical. To be noted: TR-FRET coactivator recruitment, THR beta-LBD 0.5 nM; for EC50: read-out: THRβ EC50. The gist of the method: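 Agonist-driven coactivator recruitment read as a 520/495 nm TR-FRET emission ratio after 2 h at room temperature. Final concentrations: THR beta-LBD 0.5 nM, fluorescein-SRC2-2 peptide 0.1 nM, terbium anti-GST antibody 2 nM. EC50 from four-parameter dose-response fitting.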

T1 sequence (P10827 163-410 isoform P10827-2 limits assumed, other chains not shown): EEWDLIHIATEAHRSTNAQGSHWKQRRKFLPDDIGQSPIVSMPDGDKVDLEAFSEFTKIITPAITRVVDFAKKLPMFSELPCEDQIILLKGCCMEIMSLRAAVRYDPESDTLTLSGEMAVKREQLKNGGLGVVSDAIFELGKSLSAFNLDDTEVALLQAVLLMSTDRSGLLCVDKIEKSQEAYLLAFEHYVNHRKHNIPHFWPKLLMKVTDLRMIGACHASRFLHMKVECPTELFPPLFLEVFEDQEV

Take `O=c1[nH]c(=O)n(-c2cc(Cl)c(Oc3ccc(O)c(S(=O)(=O)NC45CC(O)(C4)C5)c3)c(Cl)c2)nc1C(F)F` [Compound 81, 5-(2,6-dichloro-4-(6-(difluoromethyl)-3,5-dioxo-4,5-dihydro-1,2,4-triazin-2(3H)-yl)phenoxy)-2-hydroxy-N-(3-hydroxybicyclo[1.1.1]pentan-1-yl)benzenesulfonamide]: on THR alpha-LBD, the “THRα Emax” value was “A (85~110)” and the EC50 was 0.002 to 0.2 µM. Moreover, at THR beta-LBD, the “THRβ Emax” value was “A (90~110)” and the EC50 is 0.002 to 0.02 µM.

Consider `CS(=O)(=O)[C@H]1C[C@H](NS(=O)(=O)c2cc(Oc3c(Cl)cc(-n4nc(C(F)F)c(=O)[nH]c4=O)cc3Cl)ccc2O)C1` [Compound 82, 5-(2,6-dichloro-4-(6-(difluoromethyl)-3,5-dioxo-4,5-dihydro-1,2,4-triazin-2(3H)-yl)phenoxy)-2-hydroxy-N-((1r,3r)-3-(methylsulfonyl)cyclobutyl)benzenesulfonamide], for which, on THR alpha-LBD, the “THRα Emax” value was “B (40~85)” and the EC50 was greater than 1 µM. Moreover, at THR beta-LBD, the “THRβ Emax” value is “B (75~90)” and the EC50 lay in the range of 0.02 to 0.1 µM.

For the compound `O=c1[nH]c(=O)n(-c2cc(Cl)c(Oc3ccc(O)c(S(=O)(=O)NC4CS(=O)(=O)C4)c3)c(Cl)c2)nc1C(F)F` [Compound 83, 5-(2,6-dichloro-4-(6-(difluoromethyl)-3,5-dioxo-4,5-dihydro-1,2,4-triazin-2(3H)-yl)phenoxy)-N-(1,1-dioxidothietan-3-yl)-2-hydroxybenzenesulfonamide], at THR alpha-LBD, the “THRα Emax” value was “A (85~110)” and the EC50 fell in the range of 0.002 to 0.2 µM. Further, on THR beta-LBD, the “THRβ Emax” value is listed as “A (90~110)” and the EC50 was less than 0.002 µM.

Turning to `O=C(NCC1(NS(=O)(=O)c2cc(Oc3c(Cl)cc(-n4nc(C(F)F)c(=O)[nH]c4=O)cc3Cl)ccc2O)CC1)C1CC1` [Compound 84, N-[[1-[[5-[2,6-dichloro-4-[6-(difluoromethyl)-3,5-dioxo-1,2,4-triazin-2-yl]phenoxy]-2-hydroxy-phenyl]sulfonylamino]cyclopropyl]methyl]cyclopropane carboxamide], at THR alpha-LBD, the “THRα Emax” value is reported as “A (85~110)” and the EC50 lay within 0.002 to 0.2 µM. Also, on THR beta-LBD, the “THRβ Emax” value is “A (90~110)” and the EC50 is less than 0.002 µM.

In the case of `O=C(NC12CC(NS(=O)(=O)c3cc(Oc4c(Cl)cc(-n5nc(C(F)F)c(=O)[nH]c5=O)cc4Cl)ccc3O)(C1)C2)C1CC1` [Compound 85, N-(3-((5-(2,6-dichloro-4-(6-(difluoromethyl)-3,5-dioxo-4,5-dihydro-1,2,4-triazin-2(3H)-yl)phenoxy)-2-hydroxyphenyl)sulfonamido)bicyclo[1.1.1]pentan-1-yl)cyclopropanecarboxamide], on THR alpha-LBD, the “THRα Emax” value is recorded as “C (<40)” and the EC50 was greater than 1 µM. For the same compound, on THR beta-LBD, the “THRβ Emax” value is given as “C (<75)” and the EC50 is greater than 0.1 µM.

Turning to `O=C(N[C@H]1C[C@@H](NS(=O)(=O)c2cc(Oc3c(Cl)cc(-n4nc(C(F)F)c(=O)[nH]c4=O)cc3Cl)ccc2O)C1)C1CC1` [Compound 86, N-((1s,3s)-3-((5-(2,6-dichloro-4-(6-(difluoromethyl)-3,5-dioxo-4,5-dihydro-1,2,4-triazin-2(3H)-yl)phenoxy)-2-hydroxyphenyl)sulfonamido)cyclobutyl) cyclopropanecarboxamide], at THR alpha-LBD, the “THRα Emax” value was “C (<40)” and the EC50 is 0.2 to 1 µM. For the same compound, on THR beta-LBD, the “THRβ Emax” value is “C (<75)” and the EC50 was in the range of 0.002 to 0.02 µM.

Regarding `O=C(NCC(F)F)C1(NS(=O)(=O)c2cc(Oc3c(Cl)cc(-n4nc(C(F)F)c(=O)[nH]c4=O)cc3Cl)ccc2O)CC1` [Compound 87, 1-[[5-[2,6-dichloro-4-[6-(difluoromethyl)-3,5-dioxo-1,2,4-triazin-2-yl]phenoxy]-2-hydroxy-phenyl]sulfonylamino]-N-(2,2-difluoroethyl) cyclopropanecarboxamide], at THR alpha-LBD, the “THRα Emax” value is on record as “B (40~85)” and the EC50 fell in the range of 0.2 to 1 µM. Besides, at THR beta-LBD, the “THRβ Emax” value is recorded as “B (75~90)” and the EC50 is less than 0.002 µM.

Regarding `O=C(CNS(=O)(=O)c1cc(Oc2c(Cl)cc(-n3nc(C(F)F)c(=O)[nH]c3=O)cc2Cl)ccc1O)NCC(F)F` [Compound 88, 2-((5-(2,6-dichloro-4-(6-(difluoromethyl)-3,5-dioxo-4,5-dihydro-1,2,4-triazin-2(3H)-yl)phenoxy)-2-hydroxyphenyl)sulfonamido)-N-(2,2-difluoroethyl)acetamide], on THR alpha-LBD, the “THRα Emax” value is recorded as “B (40~85)” and the EC50 was 0.2 to 1 µM. Further, on THR beta-LBD, the “THRβ Emax” value is “B (75~90)” and the EC50 lay within 0.02 to 0.1 µM.

`O=C(NC1CCC1)C1(NS(=O)(=O)c2cc(Oc3c(Cl)cc(-n4nc(C(F)F)c(=O)[nH]c4=O)cc3Cl)ccc2O)CC1` [Compound 89, N-cyclobutyl-1-((5-(2,6-dichloro-4-(6-(difluoromethyl)-3,5-dioxo-4,5-dihydro-1,2,4-triazin-2(3H)-yl)phenoxy)-2-hydroxyphenyl)sulfonamido)cyclopropane-1-carboxamide]: on THR alpha-LBD, the “THRα Emax” value is given as “A (85~110)” and the EC50 lay within 0.002 to 0.2 µM. Also, on THR beta-LBD, the “THRβ Emax” value was “B (75~90)” and the EC50 was less than 0.002 µM.

For `O=C(NC1CCCC1)C1(NS(=O)(=O)c2cc(Oc3c(Cl)cc(-n4nc(C(F)F)c(=O)[nH]c4=O)cc3Cl)ccc2O)CC1` [Compound 90, N-cyclopentyl-1-((5-(2,6-dichloro-4-(6-(difluoromethyl)-3,5-dioxo-4,5-dihydro-1,2,4-triazin-2(3H)-yl)phenoxy)-2-hydroxyphenyl)sulfonamido)cyclopropane-1-carboxamide], at THR alpha-LBD, the “THRα Emax” value was “A (85~110)” and the EC50 was in the range of 0.002 to 0.2 µM. For the same compound, on THR beta-LBD, the “THRβ Emax” value is reported as “B (75~90)” and the EC50 is less than 0.002 µM.

Consider `O=C(N1CCCC1)C1(NS(=O)(=O)c2cc(Oc3c(Cl)cc(-n4nc(C(F)F)c(=O)[nH]c4=O)cc3Cl)ccc2O)CC1` [Compound 91, 5-(2,6-dichloro-4-(6-(difluoromethyl)-3,5-dioxo-4,5-dihydro-1,2,4-triazin-2(3H)-yl)phenoxy)-2-hydroxy-N-(1-(pyrrolidine-1-carbonyl)cyclopropyl)benzenesulfonamide], for which, at THR alpha-LBD, the “THRα Emax” value is “B (40~85)” and the EC50 lay in the range of 0.2 to 1 µM. Also, on THR beta-LBD, the “THRβ Emax” value is reported as “A (90~110)” and the EC50 lay within 0.002 to 0.02 µM.

With `O=C(NC1CC1)C1(NS(=O)(=O)c2cc(Oc3c(Cl)cc(-n4nc(C(F)F)c(=O)[nH]c4=O)cc3Cl)ccc2O)CCC1` [Compound 92, N-cyclopropyl-1-((5-(2,6-dichloro-4-(6-(difluoromethyl)-3,5-dioxo-4,5-dihydro-1,2,4-triazin-2(3H)-yl)phenoxy)-2-hydroxyphenyl)sulfonamido)cyclobutane-1-carboxamide], on THR alpha-LBD, the “THRα Emax” value is on record as “B (40~85)” and the EC50 was 0.2 to 1 µM. Besides, on THR beta-LBD, the “THRβ Emax” value was “B (75~90)” and the EC50 was 0.002 to 0.02 µM.

In the case of `O=C(NC1CC1)C1(NS(=O)(=O)c2cc(Oc3c(Cl)cc(-n4nc(C(F)(F)F)c(=O)[nH]c4=O)cc3Cl)ccc2O)CC1` [Compound 93, N-cyclopropyl-1-((5-(2,6-dichloro-4-(3,5-dioxo-6-(trifluoromethyl)-4,5-dihydro-1,2,4-triazin-2(3H)-yl)phenoxy)-2-hydroxyphenyl)sulfonamido)cyclopropane-1-carboxamide], at THR alpha-LBD, the “THRα Emax” value is reported as “C (<40)” and the EC50 is greater than 1 µM. At THR beta-LBD, the “THRβ Emax” value is “B (75~90)” and the EC50 lay within 0.02 to 0.1 µM.

The EC50 is the concentration giving half of the maximal effect.
